Data as given in patent US20070112523A1 (priority 2003, published 2007).

Tests used:
[1] = test system: vaccinia virus expressing the green fluorescent protein (vvGFP); assay: microbe, parasite or virus in culture; type: cell-based; conditions: for IC50: Orthopoxvirus vaccinia, BSC-40, 24 h
in vitro = conditions: African green monkey
[2] = in vivo, po; cited from earlier work

| Compound | anti-viral effect in a cell culture assay (inhibition of viral replication) [1] | IC50 [1] | CC50 (in vitro) | bio-availability when administered orally [2] |
| --- | --- | --- | --- | --- |
| COc1c(CCNC(=O)c2cc3ccccc3cc2O)cccc1-c1ccc([N+](=O)[O-])cc1 [TTP-A, 3-hydroxy-naphthalene-2-carboxylic acid [2-(2-methoxy-4′-nitro-biphenyl-3-yl)-ethyl]-amide] | have an anti-viral effect | ~12 µM | ~900 µM |  |
| COC(=O)C(Cc1ccc(-c2ccc(F)c(Cl)c2)cc1)NC(=O)c1cc(-c2ccc(C(F)(F)F)cc2)ccc1O (stereo not shown) [TTP-B, 3-(3′-chloro-4′-fluoro-biphenyl-4-yl)-2-[(4-hydroxy-4′-trifluoromethyl-biphenyl-3-carbonyl)-amino]-propionic acid methyl ester] | have an anti-viral effect | ~4.6 µM | ~600 µM |  |
| Nc1ccn(C[C@@H](CO)OCP(=O)(O)O)c(=O)n1 [cidofovir] |  |  |  | low bio-availability |
